Common to all, as to assay type: cell-based
In assay [1] the target is T1, human GIP R (Homo sapiens, UniProt P48546).
T1 construct: expressed in transfected cells
T1 sequence (P48546 22-466): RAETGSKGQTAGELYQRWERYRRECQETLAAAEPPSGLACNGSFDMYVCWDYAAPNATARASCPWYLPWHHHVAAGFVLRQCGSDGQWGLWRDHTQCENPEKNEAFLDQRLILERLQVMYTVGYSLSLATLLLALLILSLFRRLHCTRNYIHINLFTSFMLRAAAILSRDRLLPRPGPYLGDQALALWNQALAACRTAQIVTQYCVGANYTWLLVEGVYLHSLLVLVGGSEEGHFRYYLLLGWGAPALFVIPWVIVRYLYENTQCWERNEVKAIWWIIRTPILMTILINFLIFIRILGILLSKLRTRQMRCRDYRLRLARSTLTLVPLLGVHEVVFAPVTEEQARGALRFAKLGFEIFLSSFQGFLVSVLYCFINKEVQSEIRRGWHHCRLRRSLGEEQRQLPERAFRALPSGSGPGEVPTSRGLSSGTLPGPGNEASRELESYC
The assay is described as follows: cAMP induction in HEK293 cells expressing human GIP R (AlphaScreen cAMP kit).

Assay [2] addresses T2, human GLP-1 R (Homo sapiens, UniProt P43220).
T2 construct: expressed in transfected cells
The assay is described as follows: cAMP induction in HEK293 cells expressing human GLP-1 R (AlphaScreen cAMP kit).

The target of assay [3] is T3, human GCG R (Homo sapiens, UniProt P47871).
T3 construct: expressed in transfected cells
T3 sequence (P47871 26-477): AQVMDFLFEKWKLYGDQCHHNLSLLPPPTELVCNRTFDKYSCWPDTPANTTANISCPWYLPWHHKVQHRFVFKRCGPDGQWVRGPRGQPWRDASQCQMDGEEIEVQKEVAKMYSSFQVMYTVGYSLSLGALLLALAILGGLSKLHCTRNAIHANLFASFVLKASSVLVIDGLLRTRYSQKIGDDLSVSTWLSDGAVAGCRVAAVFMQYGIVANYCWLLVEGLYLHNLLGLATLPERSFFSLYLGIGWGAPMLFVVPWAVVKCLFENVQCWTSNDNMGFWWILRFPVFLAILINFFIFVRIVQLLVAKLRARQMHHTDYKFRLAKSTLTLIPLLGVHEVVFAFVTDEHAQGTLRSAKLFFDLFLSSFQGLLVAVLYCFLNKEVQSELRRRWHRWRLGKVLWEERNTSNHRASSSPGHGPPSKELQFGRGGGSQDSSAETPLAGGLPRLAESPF
The assay is described as follows: cAMP induction in HEK293 cells expressing human GCG R (AlphaScreen cAMP kit).

Where [4] appears, read: GIP R (EC50 in nM), Table 2, average EC50, cAMP.
Where [5] appears, read: GIP R (EC50 in nM), Table 2b (most comprehensive data), average EC50, cAMP.
The mark [6] stands for this setting: Table 2, average EC50, cAMP, HEK293 cells expressing human GLP-1 R, read-out: GLP1 R (EC50 in nM).
Where [7] appears, read: Table 2, average EC50, cAMP, read-out: GIP R (EC50 in nM).
The mark [8] stands for this setting: Table 2b (most comprehensive data), average EC50, cAMP, read-out: GIP R (EC50 in nM).
Setting [9] is: Table 2, average EC50, cAMP, HEK293 cells expressing human GCG R, read-out: GCG R (EC50 in nM).

Read-outs that look alike come from different tables or passages of the source. Peptide text beside a SMILES is read from it.

T2 sequence (P43220 24-463): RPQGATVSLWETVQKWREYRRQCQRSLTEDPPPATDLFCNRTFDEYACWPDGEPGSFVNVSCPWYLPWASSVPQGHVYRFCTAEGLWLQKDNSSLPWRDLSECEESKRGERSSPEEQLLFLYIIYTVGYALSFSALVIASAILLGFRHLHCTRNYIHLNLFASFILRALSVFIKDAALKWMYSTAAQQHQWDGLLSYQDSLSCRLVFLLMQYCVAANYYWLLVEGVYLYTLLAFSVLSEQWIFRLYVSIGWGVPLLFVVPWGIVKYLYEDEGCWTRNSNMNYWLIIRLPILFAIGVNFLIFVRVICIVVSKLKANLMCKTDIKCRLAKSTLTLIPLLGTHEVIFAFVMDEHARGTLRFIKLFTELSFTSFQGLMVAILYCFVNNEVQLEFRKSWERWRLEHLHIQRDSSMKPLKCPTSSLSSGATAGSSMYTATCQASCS

Regarding `CC(C)C[C@H](NC(=O)[C@H](CC(C)C)NC(=O)[C@H](Cc1c[nH]c2ccccc12)NC(=O)[C@H](CCC(=O)O)NC(=O)[C@@H](NC(=O)[C@H](Cc1ccccc1)NC(=O)[C@H](CC(=O)O)NC(=O)[C@H](Cc1c[nH]cn1)NC(=O)[C@H](C)NC(=O)[C@H](C)NC(=O)[C@H](CCCCN)NC(=O)[C@H](CO)NC(=O)[C@H](CCC(=O)O)NC(=O)[C@H](CC(C)C)NC(=O)[C@H](Cc1ccc(O)cc1)NC(=O)[C@H](CCCCN)NC(=O)[C@H](CO)NC(=O)[C@H](Cc1ccc(O)cc1)NC(=O)[C@H](CC(=O)O)NC(=O)[C@H](CO)NC(=O)[C@@H](NC(=O)[C@H](Cc1ccccc1)NC(=O)[C@@H](NC(=O)CNC(=O)[C@H](CCC(N)=O)NC(=O)C(C)(C)NC(=O)[C@@H](N)Cc1ccc(O)cc1)[C@@H](C)O)[C@@H](C)O)C(C)C)C(=O)N[C@@H](CO)C(=O)N[C@@H](C)C(N)=O` [Compound 8] (HELM PEPTIDE1{Y.[Aib].Q.G.T.F.T.S.D.Y.S.K.Y.L.E.S.K.A.A.H.D.F.V.E.W.L.L.S.A.[am]}$$$$V2.0), the EC50 in assay [1] (setting [4]) was 0.2 nM; in assay [1] (setting [5]), 0.015 nM; in assay [2] (setting [6]) it was 0.015 nM; in assay [3] it was 0.042 nM.
Take `CC(C)C[C@H](NC(=O)[C@H](CC(C)C)NC(=O)[C@H](Cc1c[nH]c2ccccc12)NC(=O)[C@H](CCC(=O)O)NC(=O)[C@@H](NC(=O)[C@H](Cc1ccccc1)NC(=O)[C@H](CC(=O)O)NC(=O)[C@H](CCCNC(=N)N)NC(=O)[C@H](C)NC(=O)[C@H](C)NC(=O)[C@H](CCCCN)NC(=O)[C@H](CO)NC(=O)[C@H](CC(=O)O)NC(=O)[C@H](CC(C)C)NC(=O)[C@H](Cc1ccc(O)cc1)NC(=O)[C@H](CCCCN)NC(=O)[C@H](CO)NC(=O)[C@H](Cc1ccc(O)cc1)NC(=O)[C@H](CC(=O)O)NC(=O)[C@H](CO)NC(=O)[C@@H](NC(=O)[C@H](Cc1ccccc1)NC(=O)[C@@H](NC(=O)CNC(=O)[C@H](CCC(N)=O)NC(=O)C(C)(C)NC(=O)[C@@H](N)Cc1ccc(O)cc1)[C@@H](C)O)[C@@H](C)O)C(C)C)C(=O)N[C@@H](CO)C(=O)N[C@@H](C)C(N)=O` [Compound 6] (HELM PEPTIDE1{Y.[Aib].Q.G.T.F.T.S.D.Y.S.K.Y.L.D.S.K.A.A.R.D.F.V.E.W.L.L.S.A.[am]}$$$$V2.0): the EC50 was found to be 0.34 nM in assay [1] (setting [4]), 0.01 nM in assay [1] (setting [5]), 0.0095 nM in assay [2] (setting [6]) and 0.018 nM in assay [3].
As to `CCCCCCCCCCCCCCCC(=O)N[C@@H](CCC(=O)NCCCC[C@H](NC(=O)[C@H](CO)NC(=O)[C@H](CC(=O)O)NC(=O)[C@H](CC(C)C)NC(=O)[C@H](Cc1ccc(O)cc1)NC(=O)[C@@H](NC(=O)[C@H](CO)NC(=O)[C@H](Cc1ccc(O)cc1)NC(=O)[C@H](CC(=O)O)NC(=O)[C@H](CO)NC(=O)[C@@H](NC(=O)[C@H](Cc1ccccc1)NC(=O)[C@@H](NC(=O)CNC(=O)[C@H](CCC(N)=O)NC(=O)C(C)(C)NC(=O)[C@@H](N)Cc1ccc(O)cc1)[C@@H](C)O)[C@@H](C)O)[C@@H](C)CC)C(=O)N[C@@H](C)C(=O)N[C@@H](C)C(=O)N[C@@H](Cc1c[nH]cn1)C(=O)N[C@@H](CC(=O)O)C(=O)N[C@@H](Cc1ccccc1)C(=O)N[C@H](C(=O)N[C@@H](CCC(=O)O)C(=O)N[C@@H](Cc1c[nH]c2ccccc12)C(=O)N[C@@H](CC(C)C)C(=O)N[C@@H](CC(C)C)C(=O)N[C@@H](CO)C(=O)N[C@@H](C)C(=O)NCC(=O)N1CCC[C@H]1C(=O)N[C@@H](CO)C(=O)N[C@@H](CO)C(=O)NCC(=O)N[C@@H](C)C(=O)N1CCC[C@H]1C(=O)N1CCC[C@H]1C(=O)N1CCC[C@H]1C(=O)N[C@@H](CO)C(N)=O)C(C)C)C(=O)O` [Compound 29] (HELM PEPTIDE1{Y.[Aib].Q.G.T.F.T.S.D.Y.S.I.Y.L.D.S.K.A.A.H.D.F.V.E.W.L.L.S.A.G.P.S.S.G.A.P.P.P.S.[am]}|PEPTIDE2{[CCCCCCCCCCCCCCCC(=O)[*:2]].[gGlu]}$PEPTIDE1,PEPTIDE2,17:R3-2:R2$$$V2.0), the EC50 in assay [1] (setting [7]) amounted to 0.06 nM; in assay [1] (setting [8]) it was 0.05 nM; in assay [2], 0.05 nM; in assay [2] (Table 2b (most comprehensive data), average EC50, cAMP, HEK293 cells expressing human GLP-1 R, read-out: GLP1 R (EC50 in nM)), 0.15 nM; in assay [3] (setting [9]) it was 0.15 nM.
For `CCCCCCCCCCCCCCCC(=O)N[C@@H](CCC(=O)NCCCC[C@H](NC(=O)[C@H](CO)NC(=O)[C@H](CC(=O)O)NC(=O)[C@H](CC(C)C)NC(=O)[C@H](Cc1ccc(O)cc1)NC(=O)[C@H](CCCCN)NC(=O)[C@H](CO)NC(=O)[C@H](Cc1ccc(O)cc1)NC(=O)[C@H](CC(=O)O)NC(=O)[C@H](CO)NC(=O)[C@@H](NC(=O)[C@H](Cc1ccccc1)NC(=O)[C@@H](NC(=O)CNC(=O)[C@H](CCC(N)=O)NC(=O)C(C)(C)NC(=O)[C@@H](N)Cc1ccc(O)cc1)[C@@H](C)O)[C@@H](C)O)C(=O)N[C@@H](C)C(=O)N[C@@H](C)C(=O)N[C@@H](Cc1c[nH]cn1)C(=O)N[C@@H](CC(=O)O)C(=O)N[C@@H](Cc1ccccc1)C(=O)N[C@H](C(=O)N[C@@H](CCC(=O)O)C(=O)N[C@@H](Cc1c[nH]c2ccccc12)C(=O)N[C@@H](CC(C)C)C(=O)N[C@@H](CC(C)C)C(=O)N[C@@H](CO)C(=O)N[C@@H](C)C(N)=O)C(C)C)C(=O)O` [Compound 2] (HELM PEPTIDE1{Y.[Aib].Q.G.T.F.T.S.D.Y.S.K.Y.L.D.S.K.A.A.H.D.F.V.E.W.L.L.S.A.[am]}|PEPTIDE2{[CCCCCCCCCCCCCCCC(=O)[*:2]].[gGlu]}$PEPTIDE1,PEPTIDE2,17:R3-2:R2$$$V2.0), the EC50 in assay [1] (setting [4]) stood at 0.35 nM; in assay [2] (setting [6]), 0.089 nM; in assay [3], 0.046 nM.
With `CC[C@H](C)[C@H](NC(=O)[C@H](CO)NC(=O)[C@H](Cc1ccc(O)cc1)NC(=O)[C@H](CC(=O)O)NC(=O)[C@H](CO)NC(=O)[C@@H](NC(=O)[C@H](Cc1ccccc1)NC(=O)[C@@H](NC(=O)CNC(=O)[C@H](CCC(N)=O)NC(=O)C(C)(C)NC(=O)[C@@H](N)Cc1ccc(O)cc1)[C@@H](C)O)[C@@H](C)O)C(=O)N[C@@H](Cc1ccc(O)cc1)C(=O)N[C@@H](CC(C)C)C(=O)N[C@@H](CC(=O)O)C(=O)N[C@@H](CCCCN)C(=O)N[C@@H](CCCCNC(=O)CC[C@H](NC(=O)CCCCCCCCCCCCCCCCC(=O)O)C(=O)O)C(=O)N[C@@H](C)C(=O)N[C@@H](CCC(N)=O)C(=O)N[C@@H](CCCNC(=N)N)C(=O)N[C@@H](C)C(=O)N[C@@H](Cc1ccccc1)C(=O)N[C@H](C(=O)N[C@@H](CCC(=O)O)C(=O)N[C@@H](Cc1c[nH]c2ccccc12)C(=O)N[C@@H](CC(C)C)C(=O)N[C@@H](CC(C)C)C(=O)N[C@@H](C)C(=O)N[C@@H](CCC(N)=O)C(=O)NCC(=O)N1CCC[C@H]1C(=O)N[C@@H](CO)C(=O)N[C@@H](CO)C(=O)NCC(=O)N[C@@H](C)C(=O)N1CCC[C@H]1C(=O)N1CCC[C@H]1C(=O)N1CCC[C@H]1C(=O)N[C@@H](CO)C(N)=O)C(C)C` [Compound 34] (HELM PEPTIDE1{Y.[Aib].Q.G.T.F.T.S.D.Y.S.I.Y.L.D.K.K.A.Q.R.A.F.V.E.W.L.L.A.Q.G.P.S.S.G.A.P.P.P.S.[am]}|PEPTIDE2{[O=C(O)CCCCCCCCCCCCCCCCC(=O)[*:2]].[gGlu]}$PEPTIDE1,PEPTIDE2,17:R3-2:R2$$$V2.0), the EC50 stood at 0.007 nM in assay [1] (setting [8]); 0.0066 nM in assay [2]; 0.11 nM in assay [3] (Table 2b (most comprehensive data), average EC50, cAMP, HEK293 cells expressing human GCG R, read-out: GCG R (EC50 in nM)).
Turning to `CCCCCCCCCCCCCCCC(=O)N[C@@H](CCC(=O)NCCCC[C@H](NC(=O)[C@H](CCCCN)NC(=O)[C@H](CCC(=O)O)NC(=O)[C@H](CC(C)C)NC(=O)[C@H](Cc1ccc(O)cc1)NC(=O)[C@@H](NC(=O)[C@H](CO)NC(=O)[C@H](Cc1ccc(O)cc1)NC(=O)[C@H](CC(=O)O)NC(=O)[C@H](CO)NC(=O)[C@@H](NC(=O)[C@H](Cc1ccccc1)NC(=O)[C@@H](NC(=O)CNC(=O)[C@H](CCC(N)=O)NC(=O)C(C)(C)NC(=O)[C@@H](N)Cc1ccc(O)cc1)[C@@H](C)O)[C@@H](C)O)[C@@H](C)CC)C(=O)N[C@@H](C)C(=O)N[C@@H](C)C(=O)N[C@@H](CCCCN)C(=O)N[C@@H](CCC(=O)O)C(=O)N[C@@H](Cc1ccccc1)C(=O)N[C@H](C(=O)N[C@@H](CCC(=O)O)C(=O)N[C@@H](Cc1c[nH]c2ccccc12)C(=O)N[C@@H](CC(C)C)C(=O)N[C@@H](CC(C)C)C(=O)N[C@@H](CO)C(=O)N[C@@H](C)C(N)=O)C(C)C)C(=O)O` [Compound 23] (HELM PEPTIDE1{Y.[Aib].Q.G.T.F.T.S.D.Y.S.I.Y.L.E.K.K.A.A.K.E.F.V.E.W.L.L.S.A.[am]}|PEPTIDE2{[CCCCCCCCCCCCCCCC(=O)[*:2]].[gGlu]}$PEPTIDE1,PEPTIDE2,17:R3-2:R2$$$V2.0), the results for the EC50 in assay [1] (setting [7]), in assay [2] (setting [6]) and in assay [3] (setting [9]) were 0.13 nM, 0.11 nM and 0.14 nM, respectively.
